Test system: MCF7 complex spheroid growth, % test/control
Experiment: Anticancer human tumor MCF7 cell line growth inhibition [Asc];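 also: spheroids exposed to compounds for 7 days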;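 as to viability, T/C: 100% = DMSO vehicle control wells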
Details: for IC50: curve of first compound; for viability, T/C: stronger effect = lower value
Procedure, shortened: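 Stromal components (HUVEC and hMSC) are co-assembled with the cancer cells into multicellular spheroids. Drugs are then added singly or paired, at concentrations falling by half-log increments from a clinically achievable maximum, capped at 10 microM without known Cmax.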

[1] = second compound 0.0316 µM, first compound 0.00316 µM
[2] = second compound 0.0316 µM, first compound 0.01 µM
[3] = second compound 0.0316 µM, first compound 0.0316 µM
[4] = second compound 0.0316 µM, first compound 0.1 µM
[5] = second compound 0.1 µM, first compound 0.00316 µM
[6] = second compound 0.1 µM, first compound 0.01 µM
[7] = second compound 0.1 µM, first compound 0.0316 µM
[8] = second compound 0.1 µM, first compound 0.1 µM
[9] = second compound 0.316 µM, first compound 0.00316 µM
[10] = second compound 0.316 µM, first compound 0.01 µM
[11] = second compound 0.316 µM, first compound 0.0316 µM
[12] = second compound 0.316 µM, first compound 0.1 µM
[13] = second compound 1 µM, first compound 0.00316 µM
[14] = second compound 1 µM, first compound 0.01 µM
[15] = second compound 1 µM, first compound 0.0316 µM
[16] = second compound 1 µM, first compound 0.1 µM
[17] = second compound 3.16 µM, first compound 0.00316 µM
[18] = second compound 3.16 µM, first compound 0.01 µM
[19] = second compound 3.16 µM, first compound 0.0316 µM
[20] = second compound 3.16 µM, first compound 0.1 µM
[21] = second compound 10 µM, first compound 0.00316 µM
[22] = second compound 10 µM, first compound 0.01 µM
[23] = second compound 10 µM, first compound 0.0316 µM
[24] = second compound 10 µM, first compound 0.1 µM

## COc1c(OCCCN2CCOCC2)ccc2c3n(c(=NC(=O)c4cnc(N)nc4)nc12)CCN3 + Cc1c(S(C)(=O)=O)c(-c2cc(F)cc(N3CCN(c4ccc(NS(=O)(=O)c5ccc(NC(CCN6CCC(C(=O)OCCCP(=O)(O)O)CC6)CSc6ccccc6)c(S(=O)(=O)C(F)(F)F)c5)cc4)CC3)c2)c(-c2ccc(Cl)cc2)n1C(C)C
Second compound 0.0316 µM
  IC50: 31.9 nM
Second compound 0.1 µM
  IC50: 38 nM
Second compound 0.316 µM
  IC50: 40 nM
Second compound 1 µM
  IC50: 32.8 nM
Second compound 3.16 µM
  IC50: 33 nM
Second compound 10 µM
  IC50: 76.3 nM
[1]
  viability, T/C: 89.8%
[2]
  viability, T/C: 73%
[3]
  viability, T/C: 48.7%
[4]
  viability, T/C: 33%
Second compound 0.0316 µM, first compound 0.316 µM
  viability, T/C: 12%
Second compound 0.0316 µM, first compound 1 µM
  viability, T/C: 11.4%
[5]
  viability, T/C: 77.6%
[6]
  viability, T/C: 69%
[7]
  viability, T/C: 53.1%
[8]
  viability, T/C: 33.2%
Second compound 0.1 µM, first compound 0.316 µM
  viability, T/C: 11.2%
Second compound 0.1 µM, first compound 1 µM
  viability, T/C: 9.98%
[9]
  viability, T/C: 72.9%
[10]
  viability, T/C: 72.2%
[11]
  viability, T/C: 53.9%
[12]
  viability, T/C: 30.3%
Second compound 0.316 µM, first compound 0.316 µM
  viability, T/C: 10.3%
Second compound 0.316 µM, first compound 1 µM
  viability, T/C: 11.9%
[13]
  viability, T/C: 73.6%
[14]
  viability, T/C: 68%
[15]
  viability, T/C: 50.5%
[16]
  viability, T/C: 27.4%
Second compound 1 µM, first compound 0.316 µM
  viability, T/C: 12.9%
Second compound 1 µM, first compound 1 µM
  viability, T/C: 13.1%
[17]
  viability, T/C: 76.5%
[18]
  viability, T/C: 64.6%
[19]
  viability, T/C: 52.2%
[20]
  viability, T/C: 30.4%
Second compound 3.16 µM, first compound 0.316 µM
  viability, T/C: 11.8%
Second compound 3.16 µM, first compound 1 µM
  viability, T/C: 13.4%
[21]
  viability, T/C: 171%
[22]
  viability, T/C: 164%
[23]
  viability, T/C: 103%
[24]
  viability, T/C: 34.7%
Second compound 10 µM, first compound 0.316 µM
  viability, T/C: 14.6%
Second compound 10 µM, first compound 1 µM
  viability, T/C: 11.9%

## NC(=O)C(=Cn1cnc(-c2cc(C(F)(F)F)cc(C(F)(F)F)c2)n1)c1cncnc1 + Cc1c(S(C)(=O)=O)c(-c2cc(F)cc(N3CCN(c4ccc(NS(=O)(=O)c5ccc(NC(CCN6CCC(C(=O)OCCCP(=O)(O)O)CC6)CSc6ccccc6)c(S(=O)(=O)C(F)(F)F)c5)cc4)CC3)c2)c(-c2ccc(Cl)cc2)n1C(C)C
Second compound 0.0316 µM
  IC50: 76.6 nM
Second compound 0.1 µM
  IC50: 51.6 nM
Second compound 0.316 µM
  IC50: 35.1 nM
Second compound 1 µM
  IC50: 39.8 nM
Second compound 3.16 µM
  IC50: 27.3 nM
Second compound 10 µM
  IC50: 62.6 nM
Second compound 0.0316 µM, first compound 0.000949 µM
  viability, T/C: 94.4%
Second compound 0.0316 µM, first compound 0.003 µM
  viability, T/C: 88%
Second compound 0.0316 µM, first compound 0.00949 µM
  viability, T/C: 89.3%
Second compound 0.0316 µM, first compound 0.03 µM
  viability, T/C: 89.7%
Second compound 0.0316 µM, first compound 0.0949 µM
  viability, T/C: 40.9%
Second compound 0.0316 µM, first compound 0.3 µM
  viability, T/C: 16.8%
Second compound 0.1 µM, first compound 0.000949 µM
  viability, T/C: 87.6%
Second compound 0.1 µM, first compound 0.003 µM
  viability, T/C: 82.8%
Second compound 0.1 µM, first compound 0.00949 µM
  viability, T/C: 81.8%
Second compound 0.1 µM, first compound 0.03 µM
  viability, T/C: 76.4%
Second compound 0.1 µM, first compound 0.0949 µM
  viability, T/C: 20.3%
Second compound 0.1 µM, first compound 0.3 µM
  viability, T/C: 15.7%
Second compound 0.316 µM, first compound 0.000949 µM
  viability, T/C: 90.5%
Second compound 0.316 µM, first compound 0.003 µM
  viability, T/C: 87.4%
Second compound 0.316 µM, first compound 0.00949 µM
  viability, T/C: 70.1%
Second compound 0.316 µM, first compound 0.03 µM
  viability, T/C: 60.9%
Second compound 0.316 µM, first compound 0.0949 µM
  viability, T/C: 19.7%
Second compound 0.316 µM, first compound 0.3 µM
  viability, T/C: 16.4%
Second compound 1 µM, first compound 0.000949 µM
  viability, T/C: 89%
Second compound 1 µM, first compound 0.003 µM
  viability, T/C: 75.8%
Second compound 1 µM, first compound 0.00949 µM
  viability, T/C: 73.8%
Second compound 1 µM, first compound 0.03 µM
  viability, T/C: 61%
Second compound 1 µM, first compound 0.0949 µM
  viability, T/C: 13.9%
Second compound 1 µM, first compound 0.3 µM
  viability, T/C: 18.8%
Second compound 3.16 µM, first compound 0.000949 µM
  viability, T/C: 70.4%
Second compound 3.16 µM, first compound 0.003 µM
  viability, T/C: 73.4%
Second compound 3.16 µM, first compound 0.00949 µM
  viability, T/C: 77%
Second compound 3.16 µM, first compound 0.03 µM
  viability, T/C: 47.9%
Second compound 3.16 µM, first compound 0.0949 µM
  viability, T/C: 22.5%
Second compound 3.16 µM, first compound 0.3 µM
  viability, T/C: 18.4%
Second compound 10 µM, first compound 0.000949 µM
  viability, T/C: 121%
Second compound 10 µM, first compound 0.003 µM
  viability, T/C: 131%
Second compound 10 µM, first compound 0.00949 µM
  viability, T/C: 102%
Second compound 10 µM, first compound 0.03 µM
  viability, T/C: 90.6%
Second compound 10 µM, first compound 0.0949 µM
  viability, T/C: 25.5%
Second compound 10 µM, first compound 0.3 µM
  viability, T/C: 16.8%

## NC1CCC(NC2CC2c2ccccc2)CC1 (stereo unspecified) + Cc1c(S(C)(=O)=O)c(-c2cc(F)cc(N3CCN(c4ccc(NS(=O)(=O)c5ccc(NC(CCN6CCC(C(=O)OCCCP(=O)(O)O)CC6)CSc6ccccc6)c(S(=O)(=O)C(F)(F)F)c5)cc4)CC3)c2)c(-c2ccc(Cl)cc2)n1C(C)C
Second compound 0.0316 µM
  IC50: > 100 nM
Second compound 0.1 µM
  IC50: > 100 nM
Second compound 0.316 µM
  IC50: > 100 nM
Second compound 1 µM
  IC50: > 100 nM
Second compound 3.16 µM
  IC50: > 100 nM
Second compound 10 µM
  IC50: > 100 nM
Second compound 0.0316 µM, first compound 0.000316 µM
  viability, T/C: 120%
Second compound 0.0316 µM, first compound 0.001 µM
  viability, T/C: 93.7%
[1]
  viability, T/C: 93.3%
[2]
  viability, T/C: 103%
[3]
  viability, T/C: 99.9%
[4]
  viability, T/C: 106%
Second compound 0.1 µM, first compound 0.000316 µM
  viability, T/C: 96.7%
Second compound 0.1 µM, first compound 0.001 µM
  viability, T/C: 106%
[5]
  viability, T/C: 96.3%
[6]
  viability, T/C: 115%
[7]
  viability, T/C: 115%
[8]
  viability, T/C: 97.1%
Second compound 0.316 µM, first compound 0.000316 µM
  viability, T/C: 95.4%
Second compound 0.316 µM, first compound 0.001 µM
  viability, T/C: 87.7%
[9]
  viability, T/C: 113%
[10]
  viability, T/C: 97.1%
[11]
  viability, T/C: 91.7%
[12]
  viability, T/C: 100%
Second compound 1 µM, first compound 0.000316 µM
  viability, T/C: 85.4%
Second compound 1 µM, first compound 0.001 µM
  viability, T/C: 82.6%
[13]
  viability, T/C: 95%
[14]
  viability, T/C: 84.5%
[15]
  viability, T/C: 102%
[16]
  viability, T/C: 92.9%
Second compound 3.16 µM, first compound 0.000316 µM
  viability, T/C: 96.8%
Second compound 3.16 µM, first compound 0.001 µM
  viability, T/C: 83.8%
[17]
  viability, T/C: 87.5%
[18]
  viability, T/C: 98.6%
[19]
  viability, T/C: 83.5%
[20]
  viability, T/C: 127%
Second compound 10 µM, first compound 0.000316 µM
  viability, T/C: 150%
Second compound 10 µM, first compound 0.001 µM
  viability, T/C: 195%
[21]
  viability, T/C: 149%
[22]
  viability, T/C: 215%
[23]
  viability, T/C: 186%
[24]
  viability, T/C: 161%

From PubChem BioAssay AID1963445 (Molecular Pharmacology Branch, DTP, NCI, 2024)
